Experimental findings from US20040142979A1, “Heteroarylsulfonylmethyl hydroxamic acids and amides and their use as protease inhibitors” (priority 2002, published 2004) are described below.

pKi: −log10 of the molar value. Where only a bound is given, the exact number is not on record here.

Holding throughout (format): biochemical
One experiment deals with T1, Human recombinant MMP-1 (Homo sapiens, UniProt P03956).
T1 construct: made in house; host or cells: MMP-1-transfected HT-1080 cells (spent media)
T1 sequence (P03956 100-469): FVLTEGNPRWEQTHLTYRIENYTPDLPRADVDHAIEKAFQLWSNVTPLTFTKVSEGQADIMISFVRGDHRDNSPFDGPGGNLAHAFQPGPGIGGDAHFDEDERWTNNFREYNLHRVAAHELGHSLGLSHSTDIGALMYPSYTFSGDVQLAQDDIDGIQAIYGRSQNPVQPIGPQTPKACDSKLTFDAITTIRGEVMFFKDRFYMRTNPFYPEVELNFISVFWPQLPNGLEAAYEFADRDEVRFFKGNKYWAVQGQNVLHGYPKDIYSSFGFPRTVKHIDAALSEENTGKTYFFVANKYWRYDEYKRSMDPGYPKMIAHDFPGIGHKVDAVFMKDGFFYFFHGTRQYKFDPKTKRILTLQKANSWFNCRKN
In words: In vitro MMP inhibition analysis (fluorogenic peptide substrate), MMP-1. To be noted: human recombinant enzyme; 4 μM substrate (A); apparent Ki without substrate correction. The protocol:
(§1) Several compounds and salts were analyzed in an in vitro assay to determine their ability to inhibit the MMP cleavage of peptide substrates. Inhibition constant (Ki) were calculated from the assayed compound-MMP interactions.
(§2) Human recombinant MMP-1, MMP-2, MMP-9, MMP-13, and MMP-14 were used in this assay. All enzymes were prepared in Assignee's laboratories following usual laboratory procedures. Protocols for the preparation and use of these enzymes are available in the scientific literature. See, e.g., Enzyme Nomenclature (Academic Press, San Diego, Calif., 1992) (and the citations therein). See also, Freije et al., J. Biol. Chem., 269(24), 16766-16773 (1994).
The MMP-1 proenzyme was purified from the spent media of MMP-1-transfected HT-1080 cells provided by Dr. Harold Welgus of Washington University (St. Louis, Mo.). The protein was purified on a zinc chelating column.
(§3) All MMPs were activated using 4-aminophenylmercuric acetate (“APMA”, Sigma Chemical, St. Louis, Mo.) or trypsin. MMP-9 also was activated using human recombinant MMP-3 (purified in Assignee's laboratory following standard cloning and purification techniques).
(§4) The following fluorogenic, methoxycoumarin-containing polypeptide substrate (A) was used in the MMP inhibition assays:
(§5) MCA-ArgProLeuGlyLeuDpaAlaArgGluArgNH2 (A)
(§6) “MCA” is 7-methoxycoumarin-4-yl acetyl. Substrate (A) was prepared Assignee's laboratory. In the absence of MMP inhibitory activity, the substrate is cleaved at the Gly-Leu peptide bond. This cleavage separates the highly fluorogenic peptide from the 2,4-dinitrophenyl quencher, thus resulting in increase of fluorescent intensity.
(§7) The stock solutions of the assayed compounds and salts were prepared in 1% dimethyl sulfoxide (DMSO). These stock solutions were diluted in Buffer A (100 mM Tris-HCl, 100 mM NaCl, 10 mM CaCl2, 0.05% polyoxyethylene 23 lauryl ether, pH 7.5) to obtain solutions with different compound concentrations, i.e., assay solutions with different concentrations of the assayed MMP inhibitory compound. The experiment controls contained the same amount of Buffer A/DMSO as the assayed sample, but contained none of the tested compound or salt.
(§8) The assays from which the Ki determinations were made were performed as follows. The assayed compound samples were incubated in separate wells of untreated white polystyrene plates (Nunc Nalgene International, Rochester, N.Y.), and analyzed on a Tecan SpectraFlour Plus plate reader. The excitation wavelength was 330 nm, and the emission wavelength -420 nm. All samples (assayed compounds and controls) were incubated in separate plate wells at room temperature for 1 hr in the presence of 4 μM of MMP substrate (A). In the absence of MMP inhibitory activity, substrate (A) was cleaved at the Gly-Leu bond resulting in an increase of relative fluorescence. Inhibition was observed as a reduced rate of this increase in relative fluorescence. […] This protocol is a modification of method by Knight et al., FEBS Lett., 296(3), 263-266 (1992). Apparent inhibitory constants were determined by non-linear regression of reaction velocity as a function of inhibitor and enzyme concentration using Morrison's equation, as described by Kuzmic, P., et al., Anal. Biochem., 286(1):45-50 (2000). Modifications were made in the non-linear regression method to allow a common control reaction rate and effective enzyme concentration to be shared between all dose-response relationships on a given assay plate. Since the substrate concentration was chosen to be at or below the Km, the apparent Ki's from this analysis were reported as Ki's without correction for the influence of substrate.
(§9) The above protocols were used to determine MMP inhibition Ki constants for the compounds in Examples 1, 2, and 4-42 above. All Ki values in Table 3 are given in nM units.

The target of the next experiment is T2, Human recombinant MMP-2 (Homo sapiens, UniProt P08253).
T2 construct: made in house; host or cells: MMP-2-transfected p2AHT2 cells
T2 sequence (P08253 110-660): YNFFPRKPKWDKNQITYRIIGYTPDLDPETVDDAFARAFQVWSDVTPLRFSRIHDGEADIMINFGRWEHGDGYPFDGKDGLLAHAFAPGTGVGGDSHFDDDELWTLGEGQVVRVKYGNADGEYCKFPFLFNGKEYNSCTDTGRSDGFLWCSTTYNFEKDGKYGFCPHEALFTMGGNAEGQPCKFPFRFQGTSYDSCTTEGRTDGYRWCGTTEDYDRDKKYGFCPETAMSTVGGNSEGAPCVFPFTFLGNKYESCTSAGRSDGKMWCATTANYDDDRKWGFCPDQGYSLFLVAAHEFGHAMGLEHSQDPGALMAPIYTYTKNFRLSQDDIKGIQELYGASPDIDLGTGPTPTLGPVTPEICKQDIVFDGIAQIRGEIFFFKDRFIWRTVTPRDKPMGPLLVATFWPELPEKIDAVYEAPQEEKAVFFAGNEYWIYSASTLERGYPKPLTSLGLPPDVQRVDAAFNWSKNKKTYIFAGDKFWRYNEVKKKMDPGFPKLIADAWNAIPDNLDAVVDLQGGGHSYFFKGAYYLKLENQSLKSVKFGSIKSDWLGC
In words: In vitro MMP inhibition analysis (fluorogenic peptide substrate), MMP-2. To be noted: human recombinant enzyme; 4 μM substrate (A); apparent Ki without substrate correction. The protocol:
as §1, §2
The MMP-2 proenzyme was purified by gelatin Sepharose chromatography from MMP-2- transfected p2AHT2 cells provided by Dr. Gregory Goldberg of Washington University (St. Louis, Mo.).
as §3, §4, §5, §6, §7, §8, §9

Another experiment concerns the target T3, Human recombinant MMP-14 (Homo sapiens, UniProt P50281).
T3 construct: The catalytic domain enzyme was expressed in E. Coli inclusion bodies; made in house
In words: In vitro MMP inhibition analysis (fluorogenic peptide substrate), MMP-14. The settings on record: human recombinant catalytic domain; 4 μM substrate (A); apparent Ki without substrate correction. The protocol:
as §1, §2
The MMP-14 full length cDNA was provided by Dr. Gregory Goldberg of Washington University (St. Louis, Mo.). The catalytic domain enzyme was expressed in E. Coli inclusion bodies, solubilized in urea, purified on a preparative […] reverse phase HPLC column, and then refolded in the presence of zinc acetate and purified for use.
as §3, §4, §5, §6, §7, §8, §9

With `CCCCOc1ccc(-c2ccc(S(=O)(=O)C3(C(=O)NO)CCOCC3)s2)cc1` [Example 43], the pKi at Human recombinant MMP-1 was less than 5.90; at Human recombinant MMP-2 it was 9.32; on Human recombinant MMP-14, 6.33.
The like results for `O=C(NO)C1(S(=O)(=O)c2ccc(-c3ccc(OC(F)(F)C(F)F)cc3)s2)CCOCC1` [Example 44] were, in that order, 5.95, 9.76 and 6.37.
In the case of `CCCCCc1ccc(-c2ccc(S(=O)(=O)C3(C(=O)NO)CCOCC3)cn2)cc1` [Example 45], the values for the pKi at Human recombinant MMP-1, at Human recombinant MMP-2 and on Human recombinant MMP-14 were less than 5.00, 8.68 and 5.46, respectively.
On to `O=C(NO)C1(S(=O)(=O)c2ccc(-c3ccc(OCC(F)(F)F)cc3)nc2)CCOCC1` [Example 46], for which the values for the pKi on Human recombinant MMP-1, on Human recombinant MMP-2 and on Human recombinant MMP-14 were 5.36, 9.44 and 6.07, respectively.
For `O=C(NO)C1(S(=O)(=O)c2ccc(-c3ccc(OC(F)(F)C(F)F)cc3)nc2)CCOCC1` [Example 47] the same measures were 5.83, 9.56 and 5.67.
The like results for `O=C(NO)C1(S(=O)(=O)c2ccc(-c3ccc(OC(F)(F)C(F)F)cc3)nc2)CCOCC1` [Example 48] were, in that order, 5.91, 9.65 and 5.73.
The like results for `O=C(NO)C1(S(=O)(=O)c2ccc(-c3ccc(CCC(F)(F)C(F)(F)F)cn3)s2)CCOCC1` [Example 49] were, in that order, less than 5.00, 8.50 and 5.03.
Turning to `O=C(NO)C1(S(=O)(=O)c2ccc(-c3ccc(C(F)(F)F)cn3)s2)CCOCC1` [Example 50], the pKi at Human recombinant MMP-1 was less than 5.00; on Human recombinant MMP-2, 7.53; at Human recombinant MMP-14, 5.55.
For `O=C(NO)C1(S(=O)(=O)c2ccc3nc(-c4ccc(OC(F)(F)F)cc4)sc3c2)CCOCC1` [Example 51] the same measures were 5.19, 8.68 and 5.48.
For the compound `CCCCc1ccc(C(=O)C2CCN(c3nc4ccc(S(=O)(=O)C5(C(=O)NO)CCOCC5)cc4s3)CC2)s1` [Example 52], the pKi at Human recombinant MMP-1 is less than 5.00; at Human recombinant MMP-2, 7.12; at Human recombinant MMP-14 it was less than 5.00.
With `CCCc1ccc(-c2nc3ccc(S(=O)(=O)C4(C(=O)NO)CCOCC4)cc3s2)cc1` [Example 53], the results for the pKi at Human recombinant MMP-1, on Human recombinant MMP-2 and at Human recombinant MMP-14 were less than 5.00, 8.45 and less than 5.00, respectively.
As to `CC(C)Cc1ncc(-c2nc3ccc(S(=O)(=O)C4(C(=O)NO)CCOCC4)cc3s2)s1` [Example 54], the results for the pKi at Human recombinant MMP-1, at Human recombinant MMP-2 and on Human recombinant MMP-14 were less than 5.00, 7.45 and less than 5.00, respectively.
For `O=C(NO)C1(S(=O)(=O)c2ccc3nc(-c4cccc(C(F)(F)F)c4)sc3c2)CCOCC1` [Example 55], the pKi at Human recombinant MMP-1 was less than 5.00; on Human recombinant MMP-2, 6.21; on Human recombinant MMP-14, less than 5.00.
Regarding `O=C(NO)C1(S(=O)(=O)c2ccc3nc(N4CCC(Oc5ccc(OC(F)(F)F)cc5)CC4)sc3c2)CCOCC1` [Example 56], the values for the pKi at Human recombinant MMP-1, at Human recombinant MMP-2 and on Human recombinant MMP-14 were less than 5.00, 7.39 and 6.10, respectively.
As to `O=C(NO)C1(S(=O)(=O)c2ccc3nc(-c4ccc(C(F)(F)F)cc4)sc3c2)CCOCC1` [Example 57], the pKi on Human recombinant MMP-1 is less than 5.00; at Human recombinant MMP-2, 8.73; at Human recombinant MMP-14, 5.67.
The like results for `CCc1ccc(-c2nc3ccc(S(=O)(=O)C4(C(=O)NO)CCOCC4)cc3s2)cc1` [Example 58] were, in that order, less than 5.00, 8.82 and 5.60.
For `O=C(NO)C1(S(=O)(=O)c2ccc3nc(-c4ccc(Cl)s4)sc3c2)CCOCC1` [Example 59] the same measures were less than 5.90, 8.70 and 6.03.
Turning to `O=C(NO)C1(S(=O)(=O)c2ccc3nc(-c4ccc(F)c(F)c4)sc3c2)CCOCC1` [Example 60], the pKi on Human recombinant MMP-1 was 5.55; on Human recombinant MMP-2, 7.99; on Human recombinant MMP-14, 6.15.
The like results for `O=C(NO)C1(S(=O)(=O)c2ccc3nc(-c4ccc(F)cc4F)sc3c2)CCOCC1` [Example 61] were, in that order, less than 5.00, 7.83 and less than 5.00.
As to `O=C(NO)C1(S(=O)(=O)c2ccc3nc(-c4ccsc4)sc3c2)CCOCC1` [Example 62], the pKi at Human recombinant MMP-1 was 5.69; at Human recombinant MMP-2 it was 8.32; on Human recombinant MMP-14 it was 6.45.
The like results for `COCCN1CCC(C(=O)NO)(S(=O)(=O)c2ccc3nc(-c4ccc(OC(F)(F)F)cc4)sc3c2)CC1` [Example 63] were, in that order, 5.04, 8.65 and 5.37.
For `O=C(NO)C1(S(=O)(=O)c2ccc3nc(-n4cnc(-c5ccccc5)c4)sc3c2)CCOCC1` [Example 64] the same measures were less than 5.00, 6.82 and 5.42.
As for `O=C(NO)C1(S(=O)(=O)c2ccc3nc(-c4ccc5c(c4)OCO5)sc3c2)CCOCC1` [Example 65], the values for the pKi at Human recombinant MMP-1, at Human recombinant MMP-2 and on Human recombinant MMP-14 were less than 5.90, 8.35 and 6.16, respectively.
The like results for `CCOc1ccc(-c2nc3ccc(S(=O)(=O)C4(C(=O)NO)CCOCC4)cc3s2)cc1` [Example 66] were, in that order, less than 6.51, 8.66 and less than 6.51.
The like results for `O=C(NO)C1(S(=O)(=O)c2ccc3nc(-c4ccc(SC(F)(F)F)cc4)sc3c2)CCOCC1` [Example 67] were, in that order, less than 5.00, 8.56 and 5.44.

A word on the pKi: it is the Ki on a negative log10 scale, so that one unit is a factor of ten.
